Patent US6727076B2 (priority 1995, dated 2004)
Entries after “also recorded” stand apart in the source; their conditions may differ. Where a name gives a salt, the structure may show the parent alone.

Tests used:
E. coli MG1655 [1] = type: cell-based
[2] = tested on: E. coli 287 (ATCC #11775); type: cell-based
T. harzianum DAOM 190830 = type: cell-based, Trichoderma harzianum
E. coli MG1655 [3] = type: cell-based; remark: listed apart in the source

Row | Molecule | suitability as phosphorus source (growth, purple color) (E. coli MG1655 [1]) | suitability as sulfur source (growth, purple color) (E. coli MG1655 [1]) | other results
1 | O=C[C@H](O)[C@@H](O)[C@H](O)[C@H](O)COP(=O)(O)O [Glucose-6-phosphate] | positive | – | carbon source utilization result [2]: positive
2 | NCCC[C@H](N)C(=O)O [L-ornithine] | – | – | carbon source utilization result (T. harzianum DAOM 190830): positive; suitability as nitrogen source (growth, purple color) (E. coli MG1655 [3]): not suitable
3 | O=C[C@H](O)[C@@H](O)[C@@H](O)[C@H](O)C(=O)O [D-galacturonic acid] | – | – | carbon source utilization result [2]: positive; carbon source utilization result (T. harzianum DAOM 190830): positive
4 | N[C@@H](CS)C(=O)O [L-cysteine] | – | positive | suitability as nitrogen source (growth, purple color) (E. coli MG1655 [3]): not suitable
5 | phosphatidyl glycerol | not suitable | – | –
6 | O=C(O)[C@]1(O)C[C@@H](O)[C@@H](O)[C@H](O)C1 [quinic acid] | – | – | carbon source utilization result [2]: negative; carbon source utilization result (T. harzianum DAOM 190830): positive
7 | CSCCC(NC(C)=O)C(=O)O (racemic) [N-acetyl-DL-methionine] | – | positive | –
8 | Cc1cn([C@H]2C[C@H](OP(=O)(O)O)[C@@H](CO)O2)c(=O)[nH]c1=O [thymidine 3′-monophosphate] | positive | – | –
9 | CN(CC(=O)O)C(=N)NP(=O)(O)O [phosphocreatine] | positive | – | –
10 | O=C[C@@H](O)[C@H](O)[C@H](O)COP(=O)(O)O [arabinose 5-phosphate] | positive | – | –
11 | glycogen | – | – | carbon source utilization result (T. harzianum DAOM 190830): positive
12 | CCSCCC(N)C(=O)O (racemic) [DL-ethionine] | – | not suitable | –
13 | O=S(O)(O)=S [thiosulfate] | – | positive | –
14 | O=C(COP(=O)(O)O)[C@@H](O)[C@H](O)[C@H](O)CO [fructose 1-phosphate] | positive | – | –
15 | O=S1(=O)CCCC1 [tetramethylene sulfone] | – | not suitable | –
16 | NC(=O)CCC(=O)O [succinamic acid] | – | – | carbon source utilization result (T. harzianum DAOM 190830): positive
17 | N[C@@H](CCC(=O)N[C@@H](CS)C(=O)NCC(=O)O)C(=O)O [glutathione (reduced form)] | – | positive | suitability as nitrogen source (growth, purple color) (E. coli MG1655 [3]): not suitable
18 | O=C(O)CP(=O)(O)O [phosphonoacetic acid] | not suitable | – | –
19 | O=C(O)CCCCCCCCC(=O)O [sebacic acid] | – | – | carbon source utilization result [2]: negative; carbon source utilization result (T. harzianum DAOM 190830): positive
20 | O=C(O)COP(=O)(O)O [phosphoglycolic acid] | positive | – | –
21 | O=S(=O)(O)SSS(=O)(=O)O [tetrathionate] | – | positive | –
22 | O=C[C@H](O)[C@@H](O)[C@H](O[C@@H]1O[C@H](CO)[C@@H](O)[C@H](O)[C@H]1O)[C@H](O)CO [Cellobiose] | – | – | carbon source utilization result [2]: negative; carbon source utilization result (T. harzianum DAOM 190830): positive
23 | Nc1nc2c(ncn2[C@@H]2O[C@H](CO)[C@H]3OP(=O)(O)O[C@H]32)c(=O)[nH]1 [guanosine 2′:3′-cyclic monophosphate] | positive | – | –
24 | OC[C@@H](O)C(O)[C@H](O)CO [D-arabitol] | – | – | carbon source utilization result [2]: negative; carbon source utilization result (T. harzianum DAOM 190830): positive

Row | Molecule | suitability as phosphorus source (growth, purple color) (E. coli MG1655 [1]) | suitability as sulfur source (growth, purple color) (E. coli MG1655 [1]) | other results
25 | O=C[C@H](O)[C@@H](O)[C@@H](O)[C@H](O)CO [D-galactose] | – | – | carbon source utilization result [2]: positive; carbon source utilization result (T. harzianum DAOM 190830): positive
26 | O=C(O)CCC(=O)C(=O)O [α-ketoglutaric acid] | – | – | carbon source utilization result (T. harzianum DAOM 190830): positive
27 | gentiobiose | – | – | carbon source utilization result [2]: positive/negative; carbon source utilization result (T. harzianum DAOM 190830): positive
28 | OP(O)(O)=S [thiophosphate] | positive | positive | –
29 | O=C[C@H](O)[C@@H](O)[C@@H](O)CO [L-arabinose] | – | – | carbon source utilization result [2]: positive; carbon source utilization result (T. harzianum DAOM 190830): positive
30 | NCCS(=O)O [hypotaurine] | – | positive | –
31 | O=C[C@@H](O)[C@@H](O)[C@H](O)[C@H](O)CO [D-mannose] | – | – | carbon source utilization result [2]: positive; carbon source utilization result (T. harzianum DAOM 190830): positive
32 | C[C@@H](OP(=O)(O)O)[C@H](N)C(=O)O [O-phospho-L-threonine] | positive | – | –
33 | OC[C@@H](O)[C@@H](O)[C@H](O)[C@H](O)CO [D-mannitol] | – | – | carbon source utilization result [2]: positive; carbon source utilization result (T. harzianum DAOM 190830): positive
34 | CC(=O)N[C@@H](CS)C(=O)O [N-acetyl cysteine] | – | not suitable | –
35 | O=C(CO)[C@@H](O)[C@H](O)[C@H](O)CO [D-fructose] | – | – | carbon source utilization result [2]: positive; carbon source utilization result (T. harzianum DAOM 190830): positive
36 | O=P(O)(O)OC(CO)CO [β-glycerophosphate] | positive | – | –
37 | CCCCCCCCCCCCS(=O)(=O)O [1-dodecane-sulfonic acid] | – | not suitable | –
38 | CSCCC(NC(=O)CN)C(=O)O (racemic) [glycyl-DL-methionine] | – | positive | –
39 | O=C(O)[C@H](O)[C@@H](O)[C@H](O)[C@H](O)COP(=O)(O)O [6-phosphogluconic acid] | positive | – | –
40 | N[C@@H](CS)C(=O)NCC(=O)O [cys-gly] | – | positive | –
41 | O=P(O)(O)OP(=O)(O)OP(=O)(O)O [tripolyphosphate] | not suitable | – | –
42 | O=C(O)CC(Br)C(=O)O (stereo not drawn) [Bromo succinic acid] | – | – | carbon source utilization result [2]: positive; carbon source utilization result (T. harzianum DAOM 190830): positive
43 | N[C@@H](Cc1ccc(OP(=O)(O)O)cc1)C(=O)O [O-phospho-L-tyrosine] | positive | – | –
44 | N[C@H]1C(O)O[C@H](COP(=O)(O)O)[C@@H](O)[C@@H]1O (stereo partly drawn) [glucosamine 6-phosphate] | positive | – | –
45 | O=C(CO)[C@@H](O)[C@H](O)[C@H](O)COP(=O)(O)O [Fructose-6-phosphate] | positive | – | –
46 | N[C@@H](CSC[C@H](N)C(=O)O)C(=O)O [lanthionine] | – | positive | –
47 | OCC(O)CO [Glycerol] | – | – | carbon source utilization result [2]: positive; carbon source utilization result (T. harzianum DAOM 190830): positive
48 | NCCS(=O)(=O)O [taurine] | – | positive | –

Row | Molecule | suitability as phosphorus source (growth, purple color) (E. coli MG1655 [1]) | suitability as sulfur source (growth, purple color) (E. coli MG1655 [1]) | other results
49 | N[C@@H](CS(=O)(=O)O)C(=O)O [L-cysteic acid] | – | positive | –
50 | O=P(O)(O)O[C@H]1[C@H](OP(=O)(O)O)[C@@H](OP(=O)(O)O)[C@H](OP(=O)(O)O)[C@@H](OP(=O)(O)O)[C@H]1OP(=O)(O)O [inositol hexaphosphate] | not suitable | – | –
51 | O=C(O)CC(O)(CC(=O)O)C(=O)O [Citric acid] | – | – | carbon source utilization result [2]: negative; carbon source utilization result (T. harzianum DAOM 190830): positive
52 | C[S+]([O-])CC[C@H](N)C(=O)O (stereo partly drawn) [L-methionine sulfoxide] | – | positive | –
53 | O=C(O)C(CO)OP(=O)(O)O (stereo not drawn) [2-phosphoglyceric acid] | positive | – | –
54 | O=C(O)CS [thioglycolic acid] | – | not suitable | –
55 | O=P(O)(O)CP(=O)(O)O [methylene diphosphonic acid] | not suitable | – | –
56 | Cc1cn([C@H]2C[C@H](O)[C@@H](COP(=O)(O)O)O2)c(=O)[nH]c1=O [thymidine 5′-monophosphate] | positive | – | –
57 | CSCC[C@H](N)C(=O)O [L-methionine] | – | positive | suitability as nitrogen source (growth, purple color) (E. coli MG1655 [3]): not suitable
58 | N[C@H](Cc1ccc(OP(=O)(O)O)cc1)C(=O)O [O-phospho-D-tyrosine] | positive | – | –
59 | N[C@@H](CSCSC[C@H](N)C(=O)O)C(=O)O [L-djenkolic acid] | – | positive | –
60 | CS(=O)(=O)CC[C@H](N)C(=O)O [L-methionine sulfone] | – | not suitable | –
61 | N[C@@H](COP(=O)(O)O)C(=O)O [O-phospho-L-serine] | positive | – | –
62 | CC(=O)OC[C@H](N)C(=O)O [O-acetyle-serine with sodium sulfate, O-acetyl-serine] | – | positive | –
63 | N[C@@H](CCSC[C@H](N)C(=O)O)C(=O)O [cystathionine] | – | positive | –
64 | N[C@H]1C(OP(=O)(O)O)O[C@H](CO)[C@@H](O)[C@@H]1O (stereo partly drawn) [glucosamine 1-phosphate] | positive | – | –
65 | O=P(O)(O)OP(=O)(O)O [pyrophosphate] | not suitable | – | –
66 | N[C@@H](CS(=O)O)C(=O)O [L-cysteine sulphinic acid] | – | positive | –
67 | N[C@H](COP(=O)(O)O)C(=O)O [O-phospho-D-serine] | positive | – | –
68 | Nc1nc2c(ncn2[C@@H]2O[C@@H]3COP(=O)(O)O[C@H]3[C@H]2O)c(=O)[nH]1 [guanosine 3′:5′-cyclic monophosphate] | not suitable | – | –
69 | CSC[C@H](N)C(=O)O [S-methyl-L-cysteine] | – | weak positive | –
70 | O=C[C@@H](O)[C@@H](O)[C@H](O)[C@H](O)COP(=O)(O)O [mannose 6-phosphate] | positive | – | –
71 | NCCCC(=O)O [γ-aminobutyric acid] | – | – | carbon source utilization result (T. harzianum DAOM 190830): positive; suitability as nitrogen source (growth, purple color) (E. coli MG1655 [3]): weak positive; also recorded: not suitable
72 | O=c1ccn([C@@H]2O[C@H](CO)[C@@H](O)[C@H]2OP(=O)(O)O)c(=O)[nH]1 [uridine 2′-monophosphate] | positive | – | –
